Measured values from paper PMC8692993, “PPARα and PPARγ activation is associated with pleural mesothelioma invasion but therapeutic inhibition is ineffective” (iScience, 2021).

What was measured:
[1] = target: T1, PPARδ (Homo sapiens, UniProt Q03181); assay: HG5LN reporter cell assay, PPARδ; assay type: cell-based; settings: HG5LN PPARδ reporter cells
T1 construct: expressed in transfected cells; host or cells: HG5LN (HeLa-derived, GAL4RE-luciferase)
T1 sequence (Q03181 211-439 limits assumed): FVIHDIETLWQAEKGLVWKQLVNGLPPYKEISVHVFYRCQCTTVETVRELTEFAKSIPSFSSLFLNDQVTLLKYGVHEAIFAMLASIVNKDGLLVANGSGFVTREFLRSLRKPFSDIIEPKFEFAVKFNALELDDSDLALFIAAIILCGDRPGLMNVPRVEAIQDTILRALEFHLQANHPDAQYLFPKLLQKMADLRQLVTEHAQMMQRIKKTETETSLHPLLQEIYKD

[2] = target: T2, PPARα (Homo sapiens, UniProt Q07869); design: expressed in transfected cells; host or cells: HG5LN (HeLa-derived, GAL4RE-luciferase); method as in Xu et al., 2002; settings: inhibition of agonism by 10 nM GW409544, ref Xu et al., 2002, read-out: Functionality, Lit. IC50; cited from earlier work
T2 sequence (Q07869 239-466 limits assumed): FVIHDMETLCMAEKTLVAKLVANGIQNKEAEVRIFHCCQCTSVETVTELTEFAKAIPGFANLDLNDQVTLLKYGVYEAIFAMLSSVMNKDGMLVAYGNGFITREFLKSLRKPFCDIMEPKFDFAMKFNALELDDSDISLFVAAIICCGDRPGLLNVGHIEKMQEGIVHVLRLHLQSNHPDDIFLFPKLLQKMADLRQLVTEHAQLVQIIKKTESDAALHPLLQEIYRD

For `CCC(=O)NC[C@H](Cc1ccc(OCCc2nc(-c3ccccc3)oc2C)cc1)N/C(C)=C\C(=O)c1ccc(C(F)(F)F)cc1` [GW6471], the “Effect on PPARδ in reporter cell assay” value [1] is given as “no effect” and the IC50 [2] is given as 240 nM.
